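Exposure lasted 48 hours, with cells grown in 96-well plates and compounds tested at five concentrations. Here, GI50 denotes the concentration required for 50% inhibition of growth. TGI: concentration producing complete growth inhibition.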
Key:
Assay in all cases: growth of human tumour cells (NCI), 48 h
A549 NSCLC = test system: A549 NSCLC
T-47D breast = test system: T-47D breast
SNB-19 CNS = test system: SNB-19 CNS
SR leukemia = test system: SR leukemia
OVCAR-3 ovarian = test system: OVCAR-3 ovarian
SF-295 CNS = test system: SF-295 CNS
SK-MEL-2 melanoma = test system: SK-MEL-2 melanoma
TK-10 renal = test system: TK-10 renal
UACC-257 melanoma = test system: UACC-257 melanoma
NCI/ADR-RES ovarian = test system: NCI/ADR-RES ovarian

SMILES | GI50 (A549 NSCLC) [µM] | TGI (A549 NSCLC) [µM] | GI50 (T-47D breast) [µM] | TGI (T-47D breast) [µM] | GI50 (SNB-19 CNS) [µM] | TGI (SNB-19 CNS) [µM] | GI50 (SR leukemia) [µM] | TGI (SR leukemia) [µM] | GI50 (OVCAR-3 ovarian) [µM] | TGI (OVCAR-3 ovarian) [µM] | GI50 (SF-295 CNS) [µM] | TGI (SF-295 CNS) [µM] | GI50 (SK-MEL-2 melanoma) [µM] | TGI (SK-MEL-2 melanoma) [µM] | GI50 (TK-10 renal) [µM] | TGI (TK-10 renal) [µM] | GI50 (UACC-257 melanoma) [µM] | TGI (UACC-257 melanoma) [µM] | GI50 (NCI/ADR-RES ovarian) [µM] | TGI (NCI/ADR-RES ovarian) [µM]
COC(=O)c1cc2c(cc1Cl)SC1=NN(C)S(=O)N1S2(=O)=O (configuration not stated) | > 100 | > 100 | > 100 | > 100 | > 100 | > 100 | > 100 | > 100 | > 100 | > 100 | > 100 | > 100 | > 100 | > 100 | > 100 | > 100 | > 100 | > 100 | > 100 | > 100
O=C(Nc1ccc(-n2ccc3c(NC(=O)c4ccccc4)ncnc32)cc1)c1cccc(C(F)(F)F)c1 | 0.966 | 21.1 | 5.82 | 30.6 | 2.13 | 33.4 | 0.0678 | > 32.5 | 4.37 | 20.9 | 1.07 | 16.9 | 1.47 | 13.5 | 8.57 | 27.2 | 10.2 | 32.1 | 2.67 | 37.4
[O-][N+]1(CC[N+]2([O-])CCCCC2)CCCCC1 |  | > 100 |  | > 100 |  | > 100 |  | > 100 |  | > 100 |  | > 100 |  | > 100 |  | > 100 |  |  |  | > 100
CCCCCCCC(=O)OCCCC1[C@]2(C)CC[C@@]3(C)C([C@H](C)CCC=C(C)C)CC[C@]3(C)C2CC[C@]12OC2(C)C (some centres not stated) | 32.4 | > 100 | 35.7 | > 100 | 34.5 | 97.6 | 22.6 | 45.7 | 24.9 | 65.2 | 31.2 | > 100 |  |  | 30.6 | > 100 | 68.2 | > 100 | 35 | > 100
O=C(/C=C/c1ccc(C(F)(F)F)cc1)Nc1ccc(C=C2c3ccccc3C(=O)c3ccccc32)cc1 | 6.14 | > 100 | 3.39 | 56.8 | 8.61 | > 100 | 0.772 | 41.7 | 3.76 | 18 | 4.24 | > 100 | 4.11 | 30.6 | 23.6 | > 100 | 3.87 | > 100 | 2.86 | 30.9
C[Si](C)(c1ccc(C(=O)O)cc1)c1ccc(C(=O)O)cc1 |  | > 100 |  | > 100 |  | > 100 |  | > 100 |  | > 100 |  | > 100 |  | > 100 |  | > 100 |  | > 100 |  | > 100
Cc1cc(Nc2nc(C(=O)Nc3ccccc3)nc3ccccc23)n[nH]1 | 13.9 | > 25 | 6.61 | > 25 | > 25 | > 25 | 4.36 | > 25 | 11.5 | > 25 | 7.82 | > 25 | 3.57 | > 25 | 2.52 | > 25 | > 25 | > 25 | 0.916 | > 25
CCCn1cnc2c(SCC(=O)O)nc(N)nc21 |  | > 100 |  | > 100 |  | > 100 |  | > 100 |  | > 100 |  | > 100 |  | > 100 |  | > 100 |  | > 100 |  | > 100
O=[N+]([O-])c1cccc(-c2nc(-c3ccccc3)c(-c3ccccc3)[nH]2)c1 |  | > 100 |  | > 100 |  | > 100 |  | > 100 |  | > 100 |  | > 100 |  | > 100 |  | > 100 |  | > 100 |  | > 100
CN(C)c1nc(=NCc2ccco2)ss1 |  | > 76.7 |  | 20.1 |  | > 80.4 |  | 15.3 |  | 63 |  | > 61.4 |  | > 64.8 |  | > 100 |  | > 79.4 |  | > 100
CCOc1ccc2c(c1)C(=O)c1c-2n(CCCBr)c(=O)c2cc([N+](=O)[O-])ccc12 | 29 | > 100 | 0.55 | 9.12 | 4.75 | > 100 | 0.554 | > 100 | 23.2 | > 100 | 12.3 | > 100 | > 100 | > 100 | > 100 | > 100 | 40.9 | 98.3 | 9.06 | > 100
CCCCCN(CCCCC)CC(O)c1cc(Cl)ccc1OC (configuration not stated) | 6.61 | 24.7 | 11.5 | 26.9 | 14.6 | 50.1 | 4.78 | 30.5 | 10.8 | 23.6 | 1.38 | 12.6 | 3.22 | 14.2 | 10.9 | 24.1 | 4.98 | 18.7 | 9.26 | 25.9
CC(C)c1nc(N(C)S(C)(=O)=O)nc(-c2ccc(F)cc2)c1/C=C/[C@@H](O)C[C@@H](O)CC(=O)O | > 100 | > 100 | > 100 | > 100 | 48.2 | > 100 | 32.7 | > 100 | > 100 | > 100 | 32.7 | > 100 | 26.2 | > 100 | > 100 | > 100 | > 100 | > 100 | 48.6 | > 100
NS(=O)(=O)c1ccc(N=Nc2c(O)[nH]c3ccc(C(=O)NCc4ccncc4)cc23)cc1 | > 25 | > 25 | > 25 | > 25 | > 25 | > 25 | > 25 | > 25 | > 25 | > 25 | > 25 | > 25 | > 25 | > 25 | > 25 | > 25 | > 25 | > 25 | > 25 | > 25

From PubChem BioAssay (NCI)
